Experimental data taken from patent publication US8846730B2, “Compounds as cannabinoid receptor ligands” (priority 2008, dated 2014).
Where two headings read alike, the source gives them in different places.

Columns and labels:
[1] = biological target: human CB2 receptors (Homo sapiens (Human), UniProt P34972); assay: human CB2 radioligand binding assay ([3H]CP 55,940 competition); conditions: HEK293 membranes, 0.5 nM [3H]CP 55,940; read-out: human CB2 (Ki)
Experimental: (§1) The CB1 and CB2 radioligand binding assays described herein are utilized to ascertain the affinity of compounds of the present application for binding to CB2 relative to CB1 receptors.
HEK293 cells stably expressing human CB2 receptors were grown until a confluent monolayer was formed. Briefly, the cells were harvested and homogenized in TE buffer (50 mM Tris-HCl, 1 mM MgCl2, and 1 mM EDTA) using a polytron for 2×10 second bursts in the presence of protease inhibitors, followed by centrifugation at 45,000×g for 20 minutes. The final membrane pellet was re-homogenized in storage buffer (50 mM Tris-HCl, 1 mM MgCl2, and 1 mM EDTA and 10% sucrose) and frozen at −78° C. until used. Saturation binding reactions were initiated by the addition of membrane preparation (protein concentration of 5 μg/well for human CB2) into wells of a deep well plate containing [^3H]CP 55,940 (120 Ci/mmol, a nonselective CB agonist commercially available from Tocris) in assay buffer (50 mM Tris, 2.5 mM EDTA, 5 mM MgCl2, and 0.5 mg/mL fatty acid free BSA, pH 7.4). After 90 min incubation at 30° C., binding reaction was terminated by the addition of 300 μL/well of cold assay buffer followed by rapid vacuum filtration through a UniFilter-96 GF/C filter plates (pre-soaked in 1 mg/mL BSA for 2 hours). The bound activity was counted in a TopCount using Microscint-20. Saturation experiments were conducted with twelve concentrations of [^3H]CP 55,940 ranging from 0.01 to 8 nM. Competition experiments were conducted with 0.5 nM [^3H]CP 55,940 and five concentrations (0.01 nM to 10 μM) of displacing ligands. The addition of 10 μM unlabeled CP 55,940 (Tocris, Ellisville, Mo.) was used to assess nonspecific binding.

[2] = biological target: rat CB2 receptors (Rattus norvegicus (Rat), UniProt Q9QZN9); assay: rat CB2 radioligand binding assay ([3H]CP 55,940 competition); conditions: HEK293 membranes, 0.5 nM [3H]CP 55,940
Experimental: as §1
HEK293 cells stably expressing rat CB2 receptors were grown until a confluent monolayer was formed. Briefly, the cells were harvested and homogenized in TE buffer (50 mM Tris-HCl, 1 mM MgCl2, and 1 mM EDTA) using a polytron for 2×10 second bursts in the presence of protease inhibitors, followed by centrifugation at 45,000×g for 20 minutes. The final membrane pellet was re-homogenized in storage buffer (50 mM Tris-HCl, 1 mM MgCl2, and 1 mM EDTA and 10% sucrose) and frozen at −78° C. until used. Saturation binding reactions were initiated by the addition of membrane preparation (protein concentration of 20 μg/well for rat CB2) into wells of a deep well plate containing [^3H]CP 55,940 (120 Ci/mmol, a nonselective CB agonist commercially available from Tocris) in assay buffer (50 mM Tris, 2.5 mM EDTA, 5 mM MgCl2, and 0.5 mg/mL fatty acid free BSA, pH 7.4). After 45 min incubation at 30° C., binding reaction was terminated by the addition of 300 μl/well of cold assay buffer followed by rapid vacuum filtration through a UniFilter-96 GF/C filter plates (pre-soaked in 1 mg/mL BSA for 2 hours). The bound activity was counted in a TopCount using Microscint-20. Saturation experiments were conducted with twelve concentrations of [^3H]CP 55,940 ranging from 0.01 to 8 nM. Competition experiments were conducted with 0.5 nM [^3H]CP 55,940 and five concentrations of displacing ligands selected from the range of 0.01 nM to 10 μM. The addition of 10 μM unlabeled CP 55,940 (Tocris, Ellisville, Mo.) was used to assess nonspecific binding.

[3] = biological target: rat CB2 receptors (HEK cells) (Rattus norvegicus (Rat), UniProt Q9QZN9); assay: rat CB2 cyclase functional assay (HitHunter cAMP); format: cell-based
Experimental: (§2) The cyclase functional assays were performed using the HitHunter™ cAMP assay kit from DiscoveRx (Fremont, Calif.) according to vendor's protocol. Briefly, HEK cells expressing CB2 or CB1 receptors (rat or human) were detached using cell dissociation buffer (Invitrogen, Carlsbad, Calif.), dispersed and placed in suspension at 10,000 cells per well in 96 well plates prior to the assay. Cell suspensions were incubated at 37° C. for 20 min with variable concentrations of test ligands and or 10 μM CP 55,940-positive control in the presence of a fixed concentration of forskolin (18 μM for rat CB2 and 37 μM for rat CB1) in Dulbescco's phosphate-buffered saline (Invitrogen, Carlsbad, Calif.) supplemented with bovine serum albumin (0.01% final concentration). The reactions were terminated by the addition of lysis buffer and the luminescence was detected following the procedure according to the manufacturer's instructions. EC50 values were calculated using sigmoidal dose-response curve fitting from Prism (GraphPad).

[4] = biological target: rat CB1 receptors (HEK cells) (Rattus norvegicus (Rat), UniProt P20272); assay: rat CB1 cyclase functional assay (HitHunter cAMP); format: cell-based
Sequence of rat CB1 receptors (HEK cells) (P20272 whole entry): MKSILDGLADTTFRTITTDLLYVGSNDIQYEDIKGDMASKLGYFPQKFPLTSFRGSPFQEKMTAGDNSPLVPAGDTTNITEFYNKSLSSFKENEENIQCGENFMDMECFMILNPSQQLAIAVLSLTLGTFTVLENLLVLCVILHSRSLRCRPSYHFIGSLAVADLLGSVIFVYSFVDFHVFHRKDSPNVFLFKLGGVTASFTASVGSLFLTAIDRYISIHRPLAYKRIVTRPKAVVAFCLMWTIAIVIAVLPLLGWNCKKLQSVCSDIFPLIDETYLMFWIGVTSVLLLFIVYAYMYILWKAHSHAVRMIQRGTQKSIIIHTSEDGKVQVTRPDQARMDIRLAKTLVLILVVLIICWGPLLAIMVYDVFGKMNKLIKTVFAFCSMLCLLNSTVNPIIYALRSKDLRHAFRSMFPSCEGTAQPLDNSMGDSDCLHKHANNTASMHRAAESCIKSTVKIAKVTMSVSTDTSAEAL
Experimental: as §2

[5] = HEK cells, forskolin 18 μM, read-out: rat CB2 cyclase (EC50)

Sequence of human CB2 receptors (P34972 whole entry): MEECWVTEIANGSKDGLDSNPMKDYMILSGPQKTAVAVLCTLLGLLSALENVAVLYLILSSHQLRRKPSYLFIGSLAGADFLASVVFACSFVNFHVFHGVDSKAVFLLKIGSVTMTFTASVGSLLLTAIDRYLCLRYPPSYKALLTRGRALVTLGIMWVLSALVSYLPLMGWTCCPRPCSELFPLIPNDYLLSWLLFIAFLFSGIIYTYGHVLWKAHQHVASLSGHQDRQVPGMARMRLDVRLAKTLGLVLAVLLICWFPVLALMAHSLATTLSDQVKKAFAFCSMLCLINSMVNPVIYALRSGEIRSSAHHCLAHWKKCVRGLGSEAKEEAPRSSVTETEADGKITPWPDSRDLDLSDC

Row | SMILES | Ki [1] | Ki [2] | EC50 [3, 5] | EC50 [4] | EC50 [3] | EC50 ([4]; HEK cells, forskolin 37 μM, read-out: rCB1 cyclase (EC50))
1 | CC(C)(C)c1cn(C[C@H]2CCCO2)/c(=N/C(=O)c2cc(C(F)(F)F)ccc2OCc2cnccn2)s1 [Example 19, N-[(2Z)-5-tert-butyl-3-[(2R)-tetrahydrofuran-2-ylmethyl]-1,3-thiazol-2(3H)-ylidene]-2-(pyrazin-2-ylmethoxy)-5-(trifluoromethyl)benzamide] | 5 nM | 5 nM | 0.41 nM | 3390 nM | – | –
2 | CC(C)(C)c1cn(C[C@H]2CCCO2)/c(=N/C(=O)c2cc(C(F)(F)F)ccc2OCc2cccc[n+]2[O-])s1 [Example 20, N-[(2Z)-5-tert-butyl-3-[(2R)-tetrahydrofuran-2-ylmethyl]-1,3-thiazol-2(3H)-ylidene]-2-[(1-oxidopyridin-2-yl)methoxy]-5-(trifluoromethyl)benzamide] | 209 nM | 51 nM | 0.47 nM | 7980 nM | – | –
3 | CC(C)(C)c1cn(C[C@H]2CCCO2)/c(=N/C(=O)c2cc(C(F)(F)F)ccc2OCc2cccnc2)s1 [Example 21, N-[(2Z)-5-tert-butyl-3-[(2R)-tetrahydrofuran-2-ylmethyl]-1,3-thiazol-2(3H)-ylidene]-2-(pyridin-3-ylmethoxy)-5-(trifluoromethyl)benzamide] | 13 nM | 10 nM | – | 6220 nM | 0.21 nM | –
4 | CC(C)(C)c1cn(C[C@H]2CCCO2)/c(=N/C(=O)c2cc(C(F)(F)F)ccc2OC[C@H]2CCCO2)s1 [Example 22, N-[(2Z)-5-tert-butyl-3-[(2R)-tetrahydrofuran-2-ylmethyl]-1,3-thiazol-2(3H)-ylidene]-2-[(2R)-tetrahydrofuran-2-ylmethoxy]-5-(trifluoromethyl)benzamide] | 3 nM | 0.5 nM | – | 3230 nM | 0.07 nM | –
5 | CC(C)(C)c1cn(C[C@H]2CCCO2)/c(=N/C(=O)c2cc(C(F)(F)F)ccc2OC[C@@H]2CCCO2)s1 [Example 23, N-[(2Z)-5-tert-butyl-3-[(2R)-tetrahydrofuran-2-ylmethyl]-1,3-thiazol-2(3H)-ylidene]-2-[(2S)-tetrahydrofuran-2-ylmethoxy]-5-(trifluoromethyl)benzamide] | 0.5 nM | 0.3 nM | – | 941 nM | 0.14 nM | –
6 | CN1CCC[C@H]1COc1ccc(C(F)(F)F)cc1C(=O)/N=c1\sc(C(C)(C)C)cn1C[C@H]1CCCO1 [Example 24, N-[(2Z)-5-tert-butyl-3-[(2R)-tetrahydrofuran-2-ylmethyl]-1,3-thiazol-2(3H)-ylidene]-2-{[(2S)-1-methylpyrrolidin-2-yl]methoxy}-5-(trifluoromethyl)benzamide] | 4.6 nM | 3.4 nM | 0.09 nM | 1990 nM | – | –
7 | CN1CCC[C@@H]1COc1ccc(C(F)(F)F)cc1C(=O)/N=c1\sc(C(C)(C)C)cn1C[C@H]1CCCO1 [Example 26, N-[(2Z)-5-tert-butyl-3-[(2R)-tetrahydrofuran-2-ylmethyl]-1,3-thiazol-2(3H)-ylidene]-2-{[(2R)-1-methylpyrrolidin-2-yl]methoxy}-5-(trifluoromethyl)benzamide] | 206 nM | 70 nM | 2.18 nM | 11200 nM | – | –
8 | CN1CC[C@@H](COc2ccc(C(F)(F)F)cc2C(=O)/N=c2\sc(C(C)(C)C)cn2C[C@H]2CCCO2)C1 [Example 30, N-[(2Z)-5-tert-butyl-3-[(2R)-tetrahydrofuran-2-ylmethyl]-1,3-thiazol-2(3H)-ylidene]-2-{[(3R)-1-methylpyrrolidin-3-yl]methoxy}-5-(trifluoromethyl)benzamide] | 141 nM | 29 nM | – | 12100 nM | 4.98 nM | –
9 | CN1CC[C@H](COc2ccc(C(F)(F)F)cc2C(=O)/N=c2\sc(C(C)(C)C)cn2C[C@H]2CCCO2)C1 [Example 31, N-[(2Z)-5-tert-butyl-3-[(2R)-tetrahydrofuran-2-ylmethyl]-1,3-thiazol-2(3H)-ylidene]-2-{[(3 S)-1-methylpyrrolidin-3-yl]methoxy}-5-(trifluoromethyl)benzamide] | 92 nM | 84 nM | – | 10700 nM | 3.58 nM | –
10 | CC(C)(C)c1cn(C[C@@H]2CCCO2)/c(=N/C(=O)c2cc(C(F)(F)F)ccc2OC[C@H](N)CO)s1 [Example 33, 2-{[(2R)-2-amino-3-hydroxypropyl]oxy}-N-[(2Z)-5-tert-butyl-3-[(2S)-tetrahydrofuran-2-ylmethyl]-1,3-thiazol-2(3H)-ylidene]-5-(trifluoromethyl)benzamide] | 7.4 nM | 2.8 nM | 0.18 nM | 1170 nM | – | –
11 | CN1CCN(C)C(COc2ccc(C(F)(F)F)cc2C(=O)/N=c2\sc(C(C)(C)C)cn2C[C@@H]2CCCO2)C1 (stereo partly drawn) [Example 34, N-[(2Z)-5-tert-butyl-3-[(25)-tetrahydrofuran-2-ylmethyl]-1,3-thiazol-2(3H)-ylidene]-2-[(1,4-dimethylpiperazin-2-yl)methoxy]-5-(trifluoromethyl)benzamide] | 25 nM | 13 nM | 0.3 nM | – | – | 4090 nM
12 | CN(CCOc1ccc(C(F)(F)F)cc1C(=O)/N=c1\sc(C(C)(C)C)cn1C[C@H]1CCCO1)c1ccccc1 [Example 35, N-[(2Z)-5-tert-butyl-3-[(2R)-tetrahydrofuran-2-ylmethyl]-1,3-thiazol-2(3H)-ylidene]-2-{2-[methyl(phenyl)amino]ethoxy}-5-(trifluoromethyl)benzamide] | 14 nM | 6.5 nM | 6.31 nM | 9490 nM | – | –
13 | CC(C)(C)c1cn(C[C@H]2CCCO2)/c(=N/C(=O)c2cc(C(F)(F)F)ccc2OCc2ccccc2)s1 [Example 36, 2-(benzyloxy)-N-[(2Z)-5-tert-butyl-3-[(2R)-tetrahydrofuran-2-ylmethyl]-1,3-thiazol-2(3H)-ylidene]-5-(trifluoromethyl)benzamide] | 6 nM | 2.9 nM | 1.47 nM | 6560 nM | – | –
14 | CC(C)(C)c1cn(C[C@H]2CCCO2)/c(=N/C(=O)c2cc(C(F)(F)F)ccc2OCc2cnco2)s1 [Example 37, N-[(2Z)-5-tert-butyl-3-[(2R)-tetrahydrofuran-2-ylmethyl]-1,3-thiazol-2(3H)-ylidene]-2-(1,3-oxazol-5-ylmethoxy)-5-(trifluoromethyl)benzamide] | 26 nM | 9 nM | – | 7550 nM | 0.5 nM | –
15 | CC(C)(C)c1cn(C[C@H]2CCCO2)/c(=N/C(=O)c2cc(C(F)(F)F)ccc2OCc2nccs2)s1 [Example 38, N-[(2Z)-5-tert-butyl-3-[(2R)-tetrahydrofuran-2-ylmethyl]-1,3-thiazol-2(3H)-ylidene]-2-(1,3-thiazol-2-ylmethoxy)-5-(trifluoromethyl)benzamide] | 5.5 nM | 2.5 nM | – | 2000 nM | 0.33 nM | –
